# Measured values as given in PMC11156899, “High-throughput screening unveils nitazoxanide as a potent PRRSV inhibitor by targeting NMRAL1” (Nature Communications, 2024).
# Tests used:
# [1] = pig, in vivo, po
# Method: Blood samples were collected from the anterior vena cava for complete blood count using a PE-6800VET analyzer (Prokan) and biochemical analysis using a VetTest Plasma Chemistry Analyzer (IDEXX). Reference ranges were obtained from Iowa State University College of Veterinary Medicine (https://vetmed.iastate.edu/vpath/services/diagnostic-services/clinical-pathology/testing-and-fees/reference-intervals). IHC were performed as previously described, involving 24-h incubation with SR30 antibody (1:400) and subsequent treatment with HRP-labeled secondary antibody.
# Supplementary Fig. 6: Complete Blood Counts and Biochemical Analysis.
# Six animals from the same enclosure were divided into three groups (n = 2) and fed different doses of NTZ twice daily for three
# consecutive days, with a 12-hour interval. Parameters measured included White Blood Cell (WBC) counts, Lymphocyte (LYM)
# percentages, Monocyte (MONO) counts, Neutrophil (NEU) counts, Red Blood Cell (RBC) counts, Hemoglobin (HGB)
# concentration, Mean Corpuscular Hemoglobin (MCH), Mean Corpuscular Hemoglobin Concentration (MCHC), Platelet (PLT)
# counts, Albumin (ALB) concentration, Total Protein (TP) concentration, Glucose (GLU) levels, Alkaline Phosphatase (ALP)
# levels, Total Bilirubin (TBIL) levels, and Blood Urea Nitrogen (BUN) concentration. The grey areas in each panel represent the
# reference ranges for these indices.
# PRRSV GSWW-15 = assay: EC50 against GSWW-15 strain on PAM cells; assay type: cell-based; conditions: Porcine reproductive and respiratory syndrome virus
# Text: (§1) Supplementary Fig. 3: Cytotoxicity and Antiviral Efficacy of NTZ.
# (§2) PRRSV capsid protein positive
# (§3) (primary antibody SR30, green) and nuclei (DAPI, blue).
# [2] = tested on: PRRSV (VR-2332, GSWW-15, GSWW-18); assay: Viral titers of VR-2332, GSWW-15 and GSWW-18 in Marc-145 cells; assay type: cell-based, Porcine Reproductive and Respiratory Syndrome Virus; conditions: all three strains
# Method: Viral solutions were serially diluted by a factor of 10. Samples containing varying concentrations of virus (100 μL each) were combined with DMEM containing 2% FBS (100 μL) and added to wells; control wells were virus-free. […] Relative quantification qRT-PCR was used to assess PRRSV gene expression, normalized using the 2^−ΔΔCt method in Design & Analysis Software (v2.6.0). Absolute quantification qRT-PCR was used for viral copy number detection, with RNA concentration normalization prior to analysis, as described in our previous publication. Primers used included: PRRSV 5′-[…]′ and 5′-[…]-3′; Marc-145-GAPDH 5′-[…]-3′ and 5′-[…]-3′; PAM-GAPDH 5′-[…]-3′ and 5′-[…]-3′; IFNβ 5′-[…]-3′ and 5′-[…]-3′; Human-GAPDH 5′-[…]-3′ and 5′-[…]-3′.
# as §1, §2, §3
# in vitro = conditions: pig
# Method: (§4) A concentration-gradient screening strategy was employed for 141 compounds using indirect immunofluorescence assay (IFA). […] Data are mean ± SEM.
# (§5) Cells were seeded in 96-well plates and grown in DMEM supplemented with 10% FBS. Upon reaching confluence, compounds were diluted to varying concentrations in 2% FBS-containing medium. Control wells contained DMEM with 0.5% DMSO. Treated cells were incubated at 37 °C in a 5% CO2 humidified environment for 48 or 72 h, followed by cytotoxicity assessment as outlined in our previous work[21]. […]
# [3] = tested on: Porcine alveolar macrophages (PAM); assay: in vitro
# Method: as §4, §5
# PRRSV (GSWW-18 strain) = assay: Anti-PRRSV dose-response (EC50, IFA) in PAM cells; assay type: cell-based, Porcine Reproductive and Respiratory Syndrome Virus; conditions: PAM cells
compound,measurement,setting,value
CC(=O)Oc1ccccc1C(=O)Nc1ncc([N+](=O)[O-])s1 [Nitazoxanide],"adverse reactions (hematology, biochemical indices, clinical activity)",[1],No adverse reactions
same,EC50,PRRSV GSWW-15,~1170 nM
same,relation of concentration to viral titers,[2],negative correlation
same,CC50 at 48 h,in vitro,~44000 nM
same,cytotoxicity (in words),[3],low cytotoxicity
same,IFA inhibitory effect on PRRSV,PRRSV (GSWW-18 strain); GSWW-18,dose-dependent inhibitory effect
same,EC50,"PRRSV (GSWW-18 strain); Porcine reproductive and respiratory syndrome virus, mean ± SEM, n = 2, unit only on axis title, read-out: EC50",310 ± 147 nM
